{
  "source": "patent US6969593B2",
  "about": "“Method for the selective survival or selective growth of a target cell by the use of a conjugate, its use in therapeutics and/or diagnostics and the preparation of said conjugate” (priority 2000, dated 2005)",
  "assay_type_in_all_cases": "cell-based, Escherichia coli",
  "key": {"MM294-pET26b45 [1]": {"tested_on": "MM294-pET26b45", "assay": "Spectrophotometric follow up of the cultures (optical density at 600 nm)", "details": "200 and 800 mg.L^−1 of penicillin; with or without triple complex according to label; 37° C.", "method": "(§1) Cultures (15 ml, OD=1) of TG1-fd Bla I7 and of MM294-pET26b45 are centrifuged (4000 RPM, 5 minutes). The pellet is washed twice with LB and is resolved in 15 ml sterile LB. In all cases 1 ml of the culture is diluted in 9 ml LB (11 erlenmeyers). Then the necessary quantity of the triple complexes calculated for complete degradation of the penicillin in two hours incubation is added and inbucated one hour at 37° C. Then penicillin is introduced at the final concentrations as indicated in the table below and for two hours at 37° C.\n(§2) A sample is made at the start and then every 30 minutes. The optical density is measured of the sample at 600 nm.\n(§3) In the next step, the applicant determined the conditions where optimal measurements could be made. With the help of spectrophotometric techniques the evolution in the optical density of different cultures was followed. […]\n(§4) These cultures were made in parallel with an increasing concentration of penicillin increasing in the culture medium from 0 mg.L^−1, 50 mg.L^−1, 100 mg.L^−1, 200 mg.L^−1, 400 mg.L^−1 to 800 mg.L^−1. The quantities of the ternary complex were calculated and adapted such that all the penicillin in the medium of culture were hydrolyzed in two hours. […]"}, "TG1-fd Bla I7 [2]": {"tested_on": "TG1-fd Bla I7", "assay": "Spectrophotometric follow up of the cultures (optical density at 600 nm)", "details": "200 and 800 mg.L^−1 of penicillin; with or without ternary complex according to label; 37° C.", "method": "as §1, §2, §3, §4"}, "TG1-fd Bla I7 [3]": {"tested_on": "TG1-fd Bla I7", "assay": "Experiments with selective cultures: mixed culture, colonies counted on Tet dishes", "details": "t = 2 hours; for Bacteria.ml^−1 TG1-fd Bla 17 / % TG1-fd Bla 17: Table 1 results 1; for Bacteria.ml^−1 TG1-fd Bla 17 / Bacteria.ml^−1 TG1-fd Bla I7: complex + or − according to label; for Bacteria.ml^−1 TG1-fd Bla 17: t=0 1.58E+06; for % TG1-fd Bla 17 / % TG1-fd Bla I7: mixture with MM294-pET26b45; for % TG1-fd Bla 17: t=0 20.8%", "method": "(§5) 5 ml (OD=1) of the TG1-fd Bla I7 and the MM294-pET26b45 cultures are centrifuged (4000 RPM, 5 minutes) and twice washed in LB for finally being resolved in 5 ml sterile LB. Two cultures are mixed. 1 ml of this culture is diluted in 9 ml LB (5 erlenmeyers in parallell) and the necessary quantity of the ternary complex or the conjugate is added. During one hour at 37° C. incubation takes place whereafter penicilline is introduced in this culture medium (see table above) and agitation is performed during two hours at 37° C.\n(§6) Sampling is made at the start and the finish of the reaction which is diluted and put on Tet or Kan boxes. The incubation takes place all night at 37° C. Calculation of the colonies is made the morning after.\n(§7) Mixtures have been made of bacteria TG1-fd Bla […] and MM294-pET26b45. These mixtures have been brought into contact with the ternary complex and incubated during one hour by 37° C. to allow the triple complex to be formed on the bacteria. After this incubation penicillin is added in the culture medium and cultures grown in shaking suspensions for two hours at 37° C. Subsequently, these mixtures were plated on Tet dishes and Kan dishes and incubated overnight at 37° C. The next day, the number of colonies was counted.\n(§8) The inventors have also been working on the optimisation of the initial number added in the test of the different bacteria."}, "MM294-pET26b45 [4]": {"tested_on": "MM294-pET26b45", "assay": "Experiments with selective cultures: mixed culture, colonies counted on Kan dishes", "details": "t = 2 hours, complex + or − according to label", "method": "as §5, §6, §7, §8"}},
  "data": [
    {"smiles": "CC1(C)S[C@@H]2[C@H](NC(=O)Cc3ccccc3)C(=O)N2[C@H]1C(=O)O", "note": "[penicillin G]", "values": [
      {"measurement": "evolution of optical density of the culture during time", "setting": "MM294-pET26b45 [1]", "result": "tendency to decrease"},
      {"measurement": "evolution of optical density of the culture during time", "setting": "TG1-fd Bla I7 [2]", "result": "tendency to decrease"},
      {"measurement": "Bacteria.ml^−1 TG1-fd Bla 17", "setting": "TG1-fd Bla I7 [3]; [Pen] 200 mg·L^−1", "result": "1 190 ppm"},
      {"measurement": "% TG1-fd Bla 17", "setting": "TG1-fd Bla I7 [3]; [Pen] 200 mg·L^−1", "result": 15.8, "unit": "%"},
      {"measurement": "Bacteria.ml^−1 TG1-fd Bla 17", "setting": "TG1-fd Bla I7 [3]; [Pen] 800 mg·L^−1", "result": "1 500 ppm"},
      {"measurement": "% TG1-fd Bla 17", "setting": "TG1-fd Bla I7 [3]; [Pen] 800 mg·L^−1", "result": 8.9, "unit": "%"},
      {"measurement": "Bacteria.ml^−1 TG1-fd Bla I7", "setting": "TG1-fd Bla I7 [3]; Table 2 results 1, [Pen] 200 mg·L^−1, t=0 2.05E+07", "result": 351.2, "unit": "ppm"},
      {"measurement": "% TG1-fd Bla I7", "setting": "TG1-fd Bla I7 [3]; Table 2 results 1, [Pen] 200 mg·L^−1, t=0 54.2%", "result": 50.3, "unit": "%"},
      {"measurement": "Bacteria.ml^−1 TG1-fd Bla I7", "setting": "TG1-fd Bla I7 [3]; Table 2 results 1, [Pen] 800 mg·L^−1, t=0 2.05E+07", "result": 439.0, "unit": "ppm"},
      {"measurement": "% TG1-fd Bla I7", "setting": "TG1-fd Bla I7 [3]; Table 2 results 1, [Pen] 800 mg·L^−1, t=0 54.2%", "result": 44.1, "unit": "%"},
      {"measurement": "Bacteria.ml^−1 TG1-fd Bla I7", "setting": "TG1-fd Bla I7 [3]; Table 2 results 2, [Pen] 200 mg·L^−1, t=0 1.37E+08", "result": 48.2, "unit": "ppm"},
      {"measurement": "% TG1-fd Bla I7", "setting": "TG1-fd Bla I7 [3]; Table 2 results 2, [Pen] 200 mg·L^−1, t=0 60.4%", "result": 47.1, "unit": "%"},
      {"measurement": "Bacteria.ml^−1 TG1-fd Bla I7", "setting": "TG1-fd Bla I7 [3]; Table 2 results 2, [Pen] 800 mg·L^−1, t=0 1.37E+08", "result": 2.9, "unit": "ppm"},
      {"measurement": "% TG1-fd Bla I7", "setting": "TG1-fd Bla I7 [3]; Table 2 results 2, [Pen] 800 mg·L^−1, t=0 60.4%", "result": 6.9, "unit": "%"},
      {"measurement": "Bacteria.ml^−1 MM294-pET26b45", "setting": "MM294-pET26b45 [4]; Table 1 results 1, [Pen] 200 mg·L^−1, t=0 6.00E+06", "result": "1 667 ppm"},
      {"measurement": "Bacteria.ml^−1 MM294-pET26b45", "setting": "MM294-pET26b45 [4]; Table 1 results 1, [Pen] 800 mg·L^−1, t=0 6.00E+06", "result": 557, "unit": "ppm"},
      {"measurement": "Bacteria.ml^−1 MM294-pET26b45", "setting": "MM294-pET26b45 [4]; Table 2 results 1, [Pen] 200 mg·L^−1, t=0 1.73E+07", "result": 410.4, "unit": "ppm"},
      {"measurement": "Bacteria.ml^−1 MM294-pET26b45", "setting": "MM294-pET26b45 [4]; Table 2 results 1, [Pen] 800 mg·L^−1, t=0 1.73E+07", "result": 659.0, "unit": "ppm"},
      {"measurement": "Bacteria.ml^−1 MM294-pET26b45", "setting": "MM294-pET26b45 [4]; Table 2 results 2, [Pen] 200 mg·L^−1, t=0 9.00E+07", "result": 82.2, "unit": "ppm"},
      {"measurement": "Bacteria.ml^−1 MM294-pET26b45", "setting": "MM294-pET26b45 [4]; Table 2 results 2, [Pen] 800 mg·L^−1, t=0 9.00E+07", "result": 60.0, "unit": "ppm"}
    ]}
  ]
}
